# Measurements reported in publication PMC9658513, “Discovery of Compounds That Selectively Repress the Amyloidogenic Processing of the Amyloid Precursor Protein: Design, Synthesis and Pharmacological Evaluation of Diphenylpyrazoles” (International Journal of Molecular Sciences, 2022).
# System: SY5Y-APP^695WT cells
# Experiment: in vitro
# Type: cell-based, human
# Procedure, shortened: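 Cells seeded at 3 × 10^4 per well, attached 24 h, then exposed to drug for 72 h in DMEM with 10% SVF. Viability by MTS colorimetric assay, absorbance at 490 nm.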
substance,measurement,value
"N′-[[4-[4-[3-(Dimethylamino)propyl]-3-[4-[3-(dimethylamino)propyl]phenyl] Pyrazol-1-yl]phenyl]methyl]-N,N,N′-trimethyl-propane-1,3-diamine [Compound 33]",CC50,> 100 µM
same,Cytotox. CC50,100 µM
